Experimental data: ChEMBL document CHEMBL1148851, “Chemoenzymatic synthesis and in vitro studies on the hydrolysis of antimicrobial monoglycosyl diglycerides by pancreatic lipase” (2007)
≈ marks a conversion by molar mass, not a printed value.

Key:
Assay type in all cases: functional
Staphylococcus aureus [1] = test: Antibacterial activity against Staphylococcus aureus ATCC 25923
Staphylococcus aureus [2] = test: Antibacterial activity against Staphylococcus aureus ATCC 105487
Enterococcus faecalis = test: Antibacterial activity against Enterococcus faecalis ATCC 29212
Bacillus subtilis = test: Antibacterial activity against Bacillus subtilis ATCC 6633
Escherichia coli = test: Antibacterial activity against Escherichia coli ATCC 25922
Pseudomonas aeruginosa = test: Antibacterial activity against Pseudomonas aeruginosa ATCC 27753
Staphylococcus aureus [3] = test: Antibacterial activity against Staphylococcus aureus SA85 isolate
Staphylococcus aureus [4] = test: Antibacterial activity against Staphylococcus aureus SA52 isolate
Staphylococcus aureus [5] = test: Antibacterial activity against Staphylococcus aureus SA87 isolate
[6] = system: Mycobacterium tuberculosis; test: Antibacterial activity against Mycobacterium tuberculosis H37Rv by dilution method
[7] = system: Mycobacterium tuberculosis; test: Antibacterial activity against Mycobacterium tuberculosis H160 by dilution method
[8] = system: Mycobacterium tuberculosis; test: Antibacterial activity against Mycobacterium tuberculosis H190 by dilution method
Candida albicans = test: Antifungal activity against Candida albicans by dilution method
Kluyveromyces marxianus = test: Antifungal activity against Candida pseudotropicalis by dilution method
[9] = Bacillus subtilis, ATCC 6633, read-out: MIC
[10] = Staphylococcus aureus, read-out: MIC
[11] = Mycobacterium tuberculosis, H37Rv, read-out: MIC
[12] = Mycobacterium tuberculosis, H160, read-out: MIC

Row | SMILES | MIC (Staphylococcus aureus [1]) [µg/mL] | MIC (Staphylococcus aureus [2]) [µg/mL] | MIC (Enterococcus faecalis) [µg/mL] | MIC (Bacillus subtilis; [9]) [µg/mL] | MIC (Escherichia coli) [µg/mL] | MIC (Pseudomonas aeruginosa) [µg/mL] | MIC (Staphylococcus aureus [3]) [µg/mL] | MIC (Staphylococcus aureus [4]) [µg/mL] | MIC (Staphylococcus aureus [5]; [10]) [µg/mL] | MIC [6, 11] [µg/mL] | MIC [7, 12] [µg/mL] | MIC [8] [µg/mL] | MIC (Candida albicans) [µg/mL] | MIC (Kluyveromyces marxianus) [µg/mL] | MIC (Bacillus subtilis) [µg/mL] | MIC (Staphylococcus aureus [5]) [µg/mL] | MIC [6] [µg/mL] | MIC [7] [µg/mL]
1 | CCCCCCCC/C=C\CCCCCCCC(=O)OC(COC(=O)CCCCCCCCC)CO[C@@H]1O[C@H](CO)[C@@H](O)[C@H](O)[C@H]1O (stereo not given in full) | 8 (≈ 11.9 µM) | > 128 | > 128 | 32 (≈ 47.6 µM) | > 128 | > 128 | 128 (≈ 190 µM) | > 128 | > 128 | > 128 | > 128 | > 128 | > 128 | > 128 |  |  |  | 
2 | CCCCC/C=C\C/C=C\CCCCCCCC(=O)OC(COC(=O)CCCCCCCCC)CO[C@@H]1O[C@H](CO)[C@@H](O)[C@H](O)[C@H]1O (stereo not given in full) | > 128 | 32 (≈ 47.7 µM) | 64 (≈ 95.4 µM) | 128 (≈ 191 µM) | > 128 | > 128 | 32 (≈ 47.7 µM) | > 128 | 32 (≈ 47.7 µM) | > 128 | > 128 | > 128 | > 128 | > 128 |  |  |  | 
3 | CCCCCCCC/C=C\CCCCCCCC(=O)OC(COC(=O)CCCCCCC)CO[C@@H]1O[C@H](CO)[C@H](O)[C@H](O)[C@H]1O (stereo not given in full) | > 128 | > 128 | > 128 | 128 (≈ 198 µM) | > 128 | > 128 | > 128 | > 128 | 64 (≈ 99.2 µM) | 128 (≈ 198 µM) | 64 (≈ 99.2 µM) | 64 (≈ 99.2 µM) | > 128 | > 128 |  |  |  | 
4 | CCCCCCCC/C=C\CCCCCCCC(=O)OC(COC(=O)CCCCCCC)CO[C@@H]1O[C@H](CO)[C@@H](O)[C@H](O)[C@H]1O (stereo not given in full) | > 128 | > 128 | > 128 | 128 (≈ 198 µM) | > 128 | > 128 | > 128 | > 128 | 64 (≈ 99.2 µM) | 64 (≈ 99.2 µM) | 64 (≈ 99.2 µM) | 64 (≈ 99.2 µM) | > 128 | > 128 |  |  |  | 
5 | CC/C=C\C/C=C\C/C=C\CCCCCCCC(=O)OC(COC(=O)CCCCCCC)CO[C@@H]1O[C@H](CO)[C@@H](O)[C@H](O)[C@H]1O (stereo not given in full) | > 128 | > 128 | > 128 | 128 (≈ 200 µM) | > 128 | > 128 | > 128 | > 128 | 64 (≈ 99.9 µM) | 64 (≈ 99.9 µM) | 128 (≈ 200 µM) | 64 (≈ 99.9 µM) | > 128 | > 128 |  |  |  | 
6 | CCCCC/C=C\C/C=C\CCCCCCCC(=O)OC(COC(=O)CCCCCCC)CO[C@@H]1O[C@H](CO)[C@H](O)[C@H](O)[C@H]1O (stereo not given in full) | > 128 | > 128 | > 128 | 128 (≈ 199 µM) | > 128 | > 128 | > 128 | > 128 | 128 (≈ 199 µM) | 64 (≈ 99.6 µM) | 64 (≈ 99.6 µM) | 128 (≈ 199 µM) | > 128 | > 128 |  |  |  | 
7 | CC/C=C\C/C=C\C/C=C\CCCCCCCC(=O)OC(COC(=O)CCCCCCC)CO[C@@H]1O[C@H](CO)[C@H](O)[C@H](O)[C@H]1O (stereo not given in full) | > 128 | > 128 | > 128 | 128 (≈ 200 µM) | > 128 | > 128 | > 128 | > 128 | 64 (≈ 99.9 µM) | 128 (≈ 200 µM) | 128 (≈ 200 µM) | 128 (≈ 200 µM) | > 128 | > 128 |  |  |  | 
8 | CCCCC/C=C\C/C=C\CCCCCCCC(=O)OC(COC(=O)CCCCCCCCC)CO[C@@H]1O[C@H](CO)[C@H](O)[C@H](O)[C@H]1O (stereo not given in full) | > 128 | 64 (≈ 95.4 µM) | 128 (≈ 191 µM) | 128 (≈ 191 µM) | > 128 | > 128 | 64 (≈ 95.4 µM) | > 128 | 64 (≈ 95.4 µM) | > 128 | > 128 | > 128 | > 128 | > 128 |  |  |  | 
9 | CCCCCCCC/C=C\CCCCCCCC(=O)OC(COC(=O)CCCCCCCCC)CO[C@@H]1O[C@H](CO)[C@H](O)[C@H](O)[C@H]1O (stereo not given in full) | 128 (≈ 190 µM) | > 128 | > 128 | 32 (≈ 47.6 µM) | > 128 | > 128 | 128 (≈ 190 µM) | > 128 | > 128 | > 128 | > 128 | > 128 | > 128 | > 128 |  |  |  | 
10 | CC/C=C\C/C=C\C/C=C\CCCCCCCC(=O)OC(COC(=O)CCCCCCCCC)CO[C@@H]1O[C@H](CO)[C@H](O)[C@H](O)[C@H]1O (stereo not given in full) | > 128 | > 128 | > 128 | > 128 | > 128 | > 128 | 64 (≈ 95.7 µM) | > 128 | 32 (≈ 47.8 µM) | > 128 | > 128 | > 128 | > 128 | > 128 |  |  |  | 
11 | CC/C=C\C/C=C\C/C=C\CCCCCCCC(=O)OC(COC(=O)CCCCCCCCC)CO[C@@H]1O[C@H](CO)[C@@H](O)[C@H](O)[C@H]1O (stereo not given in full) | > 128 | > 128 | > 128 | > 128 | > 128 | > 128 | 64 (≈ 95.7 µM) | > 128 | 32 (≈ 47.8 µM) | > 128 | > 128 | > 128 | > 128 | > 128 |  |  |  | 
12 | CCCCCCCC/C=C\CCCCCCCC(=O)OCC(CO[C@@H]1O[C@H](CO)[C@H](O)[C@H](O)[C@H]1O)OC(=O)CCCCCCC/C=C\CCCCCCCC (stereo not given in full) | > 128 | > 128 | > 128 | > 128 | > 128 | > 128 | > 128 | > 128 | > 128 | > 128 | > 128 | > 128 | > 128 | > 128 |  |  |  | 
13 | CCCCC/C=C\C/C=C\CCCCCCCC(=O)OC(COC(=O)CCCCCCC)CO[C@@H]1O[C@H](CO)[C@@H](O)[C@H](O)[C@H]1O (stereo not given in full) | > 128 | > 128 | > 128 | 128 (≈ 199 µM) | > 128 | > 128 | > 128 | > 128 | 64 (≈ 99.6 µM) | 64 (≈ 99.6 µM) | 128 (≈ 199 µM) | 64 (≈ 99.6 µM) | > 128 | > 128 |  |  |  | 
14 | CCCCC/C=C\C/C=C\CCCCCCCC(=O)OCC(CO[C@@H]1O[C@H](CO)[C@@H](O)[C@H](O)[C@H]1O)OC(=O)CCCCCCC/C=C\C/C=C\CCCCC (stereo in doubt; 9g) |  |  |  |  |  |  |  |  |  | 64 (≈ 82.1 µM) | 64 (≈ 82.1 µM) | 128 (≈ 164 µM) |  |  | 128 (≈ 164 µM) | 64 (≈ 82.1 µM) |  | 
15 | CCCCC/C=C\C/C=C\CCCCCCCC(=O)OCC(CO[C@@H]1O[C@H](CO)[C@@H](O)[C@H](O)[C@H]1O)OC(=O)CCCCCCC/C=C\C/C=C\CCCCC (stereo in doubt; 9q) | > 128 | > 128 | > 128 | 128 (≈ 164 µM) | > 128 | > 128 | > 128 | > 128 | 128 (≈ 164 µM) |  |  |  | > 128 | > 128 |  |  | 128 (≈ 164 µM) | 128 (≈ 164 µM)
